# Experiments:
# [1] = NaCl concentration required to stabilize silver-chloro complex salts; format: physicochemical; conditions: for NaCl CONCENTRATION REQUIRED TO STABILIZE SILVER-CHLORO COMPLEX SALTS IN AQUEOUS SOLUTION OF 70% (w/v) ETHANOL (b) / NaCl CONCENTRATION REQUIRED TO STABILIZE SILVER-CHLORO COMPLEX SALTS IN WATER (AQUEOUS SOLUTION) (a): 25° C.
# Protocol: The concentration of the chloride in the second antimicrobial agent in accordance with the present invention is not particularly limited, but it is preferable that the chloride be added in a predetermined concentration in accordance with the concentration of the silver-chloro complex salts contained in the antimicrobial agent. […] Specifically, the required concentration of the chloride to stabilize the silver-chloro complex salts (at 25° C.) has the following correlation in water or in a 70%(w/v) ethanol aqueous solution.
# [2] = upper limit value of the silver-chloro complex salts in sodium chloride-water-ethanol; format: physicochemical; conditions: water and ethanol mixed in the volume ratio of 32:68, 3%(w/v) of sodium chloride
# Text: For example, in the system of silver-chloro complex salts (sodium tetrachloroargentate (I))-sodium chloride-water-ethanol, the upper limit value of the silver-chloro complex salts is 46 ppm when water and ethanol was mixed in the volume ratio of 32:68 and 3%(w/v) of sodium chloride was contained therein.
# [3] = silver ion concentration 0.183 ppm
# [4] = silver ion concentration 0.410 ppm
# [5] = silver ion concentration 2.600 ppm
# [6] = silver ion concentration 8.697 ppm
# [7] = silver ion concentration 42.189 ppm
smiles,measurement,setting,value
"[Cl][Ag-3]([Cl])([Cl])[Cl].[Na+].[Na+].[Na+] [SILVER-CHLORO COMPLEX SALTS, sodium tetrachloroargentate (I)]",ratio of NaCl concentration required in 70% ethanol to that required in water,[1]; [3],0.044
same,NaCl CONCENTRATION REQUIRED TO STABILIZE SILVER-CHLORO COMPLEX SALTS IN AQUEOUS SOLUTION OF 70% (w/v) ETHANOL (b),[1]; [3],0.128 g/L
same,NaCl CONCENTRATION REQUIRED TO STABILIZE SILVER-CHLORO COMPLEX SALTS IN WATER (AQUEOUS SOLUTION) (a),[1]; [3],2.925 g/L
same,ratio of NaCl concentration required in 70% ethanol to that required in water,[1]; [4],0.049
same,NaCl CONCENTRATION REQUIRED TO STABILIZE SILVER-CHLORO COMPLEX SALTS IN AQUEOUS SOLUTION OF 70% (w/v) ETHANOL (b),[1]; [4],0.287 g/L
same,NaCl CONCENTRATION REQUIRED TO STABILIZE SILVER-CHLORO COMPLEX SALTS IN WATER (AQUEOUS SOLUTION) (a),[1]; [4],5.850 g/L
same,ratio of NaCl concentration required in 70% ethanol to that required in water,[1]; [5],0.062
same,NaCl CONCENTRATION REQUIRED TO STABILIZE SILVER-CHLORO COMPLEX SALTS IN AQUEOUS SOLUTION OF 70% (w/v) ETHANOL (b),[1]; [5],1.820 g/L
same,NaCl CONCENTRATION REQUIRED TO STABILIZE SILVER-CHLORO COMPLEX SALTS IN WATER (AQUEOUS SOLUTION) (a),[1]; [5],29.250 g/L
same,ratio of NaCl concentration required in 70% ethanol to that required in water,[1]; [6],0.107
same,NaCl CONCENTRATION REQUIRED TO STABILIZE SILVER-CHLORO COMPLEX SALTS IN AQUEOUS SOLUTION OF 70% (w/v) ETHANOL (b),[1]; [6],6.088 g/L
same,NaCl CONCENTRATION REQUIRED TO STABILIZE SILVER-CHLORO COMPLEX SALTS IN WATER (AQUEOUS SOLUTION) (a),[1]; [6],57.038 g/L
same,ratio of NaCl concentration required in 70% ethanol to that required in water,[1]; [7],0.262
same,NaCl CONCENTRATION REQUIRED TO STABILIZE SILVER-CHLORO COMPLEX SALTS IN AQUEOUS SOLUTION OF 70% (w/v) ETHANOL (b),[1]; [7],29.532 g/L
same,NaCl CONCENTRATION REQUIRED TO STABILIZE SILVER-CHLORO COMPLEX SALTS IN WATER (AQUEOUS SOLUTION) (a),[1]; [7],112.905 g/L
same,upper limit value of the silver-chloro complex salts,[2],46 ppm

# From patent publication US6726936B1, “Antimicrobial agents” (Sumitomo Metal Mining Co., Ltd., priority 1998, dated 2004)
